Assay results: ChEMBL document CHEMBL1201862, “PubChem BioAssay data set” (2004)
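Interpolation was linear, between the two tested concentrations surrounding the appropriate level; five concentrations were tested over 48 hours in 96-well plates. Abbreviation: GI50, concentration required for 50% inhibition of growth.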 Active and inactive are the calls of the source. Rule as the data show it: active = GI50 up to about 1.1 µM and inactive = higher.

What was measured:
Assay in all cases: NCI-60 cell line screen, 48 h
UACC-62 = system: UACC-62
SF-268 = system: SF-268
HL-60 = system: HL-60
SK-MEL-28 = system: SK-MEL-28
RXF 393 = system: RXF 393
NCI-H23 = system: NCI-H23
U-251 = system: U-251
SR = system: SR
SK-MEL-2 = system: SK-MEL-2
K562 = system: K562
786-0 = system: 786-0
NCI-H460 = system: NCI-H460
SK-MEL-5 = system: SK-MEL-5
MDA-MB-435 = system: MDA-MB-435
Malme-3M = system: Malme-3M
IGROV-1 = system: IGROV-1
NCI/ADR-RES = system: NCI/ADR-RES
SNB-75 = system: SNB-75
CAKI-1 = system: CAKI-1
OVCAR-5 = system: OVCAR-5
M14 = system: M14
RPMI-8226 = system: RPMI-8226
A549 = system: A549
COLO 205 = system: COLO 205
OVCAR-4 = system: OVCAR-4
SK-OV-3 = system: SK-OV-3
MOLT-4 = system: MOLT-4
CCRF-CEM = system: CCRF-CEM
SW-620 = system: SW-620
MCF7 = system: MCF7
T47D = system: T47D
HOP-62 = system: HOP-62
ACHN = system: ACHN
HCT-15 = system: HCT-15
DU-145 = system: DU-145
KM12 = system: KM12
EKVX = system: EKVX
HCC 2998 = system: HCC 2998
SF-295 = system: SF-295
UO-31 = system: UO-31
NCI-H522 = system: NCI-H522
BT-549 = system: BT-549
HT-29 = system: HT-29
PC-3 = system: PC-3
A498 = system: A498
HCT-116 = system: HCT-116
SNB-19 = system: SNB-19
HOP-92 = system: HOP-92
MDA-MB-231 = system: MDA-MB-231
SN12C = system: SN12C
TK-10 = system: TK-10
UACC-257 = system: UACC-257
MDA-N = system: MDA-N
NCI-H226 = system: NCI-H226
LOX IMVI = system: LOX IMVI
Hs-578T = system: Hs-578T
OVCAR-3 = system: OVCAR-3

For CC1=C2C(=O)c3ccccc3C2=C(C)S(=O)(=O)O1, the GI50 (UACC-62) was > 10 µM (inactive), the GI50 (SF-268) was > 10 µM (inactive) and the GI50 (HL-60) was > 10 µM (inactive). For the same compound, the GI50 (SK-MEL-28) was > 10 µM (inactive), the GI50 (RXF 393) was > 10 µM (inactive) and the GI50 (NCI-H23) was > 10 µM (inactive). For the same compound, the GI50 (U-251) was > 10 µM (inactive), the GI50 (SR) was > 10 µM (inactive) and the GI50 (SK-MEL-2) was > 10 µM (inactive). For the same compound, the GI50 (K562) was > 10 µM (inactive), the GI50 (786-0) was > 10 µM (inactive) and the GI50 (NCI-H460) was > 10 µM (inactive). The GI50 (SK-MEL-5) was > 10 µM (inactive), the GI50 (MDA-MB-435) was > 10 µM (inactive) and the GI50 (Malme-3M) was > 10 µM (inactive). For the same compound, the GI50 (IGROV-1) was > 10 µM (inactive), the GI50 (NCI/ADR-RES) was > 10 µM (inactive) and the GI50 (SNB-75) was > 10 µM (inactive). For the same compound, the GI50 (CAKI-1) was > 10 µM (inactive), the GI50 (OVCAR-5) was > 10 µM (inactive) and the GI50 (M14) was > 10 µM (inactive). The GI50 (RPMI-8226) was > 10 µM (inactive), the GI50 (A549) was > 10 µM (inactive) and the GI50 (COLO 205) was > 10 µM (inactive). The GI50 (OVCAR-4) was > 10 µM (inactive), the GI50 (SK-OV-3) was > 10 µM (inactive) and the GI50 (MOLT-4) was > 10 µM (inactive). For the same compound, the GI50 (CCRF-CEM) was > 10 µM (inactive), the GI50 (SW-620) was > 10 µM (inactive) and the GI50 (MCF7) was > 10 µM (inactive). The GI50 (T47D) was > 10 µM (inactive), the GI50 (HOP-62) was > 10 µM (inactive) and the GI50 (ACHN) was > 10 µM (inactive).

Clc1ccc(OCc2nnc(CCCCCCCCc3nnc(COc4ccc(Cl)cc4Cl)o3)o2)c(Cl)c1 was tested, and the GI50 (UACC-62) was > 100 µM (inactive), the GI50 (HCT-15) was 97.5 µM and the GI50 (SF-268) was 42 µM (inactive). For the same compound, the GI50 (DU-145) was 85.9 µM (inactive), the GI50 (KM12) was 95.1 µM (inactive) and the GI50 (SK-MEL-28) was > 100 µM (inactive). For the same compound, the GI50 (RXF 393) was > 100 µM (inactive), the GI50 (NCI-H23) was > 100 µM (inactive) and the GI50 (EKVX) was > 100 µM (inactive). The GI50 (U-251) was > 100 µM (inactive), the GI50 (HCC 2998) was > 100 µM (inactive) and the GI50 (SK-MEL-2) was > 100 µM (inactive). The GI50 (K562) was 18.2 µM (inactive), the GI50 (786-0) was 47.1 µM (inactive) and the GI50 (NCI-H460) was 79.6 µM (inactive). For the same compound, the GI50 (SF-295) was 85.1 µM (inactive), the GI50 (SK-MEL-5) was > 100 µM (inactive) and the GI50 (MDA-MB-435) was > 100 µM (inactive). For the same compound, the GI50 (Malme-3M) was 9.44 µM (inactive), the GI50 (IGROV-1) was 9.4 µM (inactive) and the GI50 (UO-31) was 44.1 µM (inactive). For the same compound, the GI50 (NCI/ADR-RES) was 76.6 µM (inactive), the GI50 (NCI-H522) was 18.7 µM (inactive) and the GI50 (BT-549) was > 100 µM (inactive). For the same compound, the GI50 (SNB-75) was > 100 µM (inactive), the GI50 (HT-29) was > 100 µM (inactive) and the GI50 (PC-3) was 60.3 µM (inactive). For the same compound, the GI50 (CAKI-1) was 24.6 µM (inactive), the GI50 (OVCAR-5) was > 100 µM (inactive) and the GI50 (M14) was > 100 µM (inactive). For the same compound, the GI50 (RPMI-8226) was 58.9 µM (inactive), the GI50 (A498) was > 100 µM (inactive) and the GI50 (HCT-116) was 15.7 µM (inactive). For the same compound, the GI50 (A549) was 49.2 µM (inactive), the GI50 (SNB-19) was 69.3 µM (inactive) and the GI50 (HOP-92) was 41.1 µM (inactive). The GI50 (COLO 205) was > 100 µM (inactive), the GI50 (OVCAR-4) was 92.9 µM (inactive) and the GI50 (SK-OV-3) was > 100 µM (inactive). For the same compound, the GI50 (MDA-MB-231) was > 100 µM (inactive), the GI50 (MOLT-4) was 14.3 µM (inactive) and the GI50 (SN12C) was > 100 µM (inactive). For the same compound, the GI50 (TK-10) was > 100 µM (inactive), the GI50 (SW-620) was > 100 µM (inactive) and the GI50 (MCF7) was 42.3 µM (inactive). The GI50 (UACC-257) was > 100 µM (inactive), the GI50 (ACHN) was > 100 µM (inactive) and the GI50 (MDA-N) was > 100 µM (inactive). For the same compound, the GI50 (NCI-H226) was > 100 µM (inactive).

COC1(c2ccc(Cl)cc2)SC=C(C)n2c1noc2=O (stereo unspecified) was tested, and the GI50 (UACC-62) was > 100 µM (inactive), the GI50 (HCT-15) was over 100 µM and the GI50 (SF-268) was > 100 µM (inactive). For the same compound, the GI50 (LOX IMVI) was > 100 µM (inactive), the GI50 (DU-145) was > 100 µM (inactive) and the GI50 (KM12) was 86.9 µM (inactive). The GI50 (Hs-578T) was > 100 µM (inactive), the GI50 (HL-60) was > 100 µM (inactive) and the GI50 (SK-MEL-28) was > 100 µM (inactive). The GI50 (RXF 393) was > 100 µM (inactive), the GI50 (NCI-H23) was > 100 µM (inactive) and the GI50 (EKVX) was > 100 µM (inactive). The GI50 (U-251) was > 100 µM (inactive), the GI50 (HCC 2998) was > 100 µM (inactive) and the GI50 (SR) was > 100 µM (inactive). The GI50 (K562) was > 100 µM (inactive), the GI50 (786-0) was > 100 µM (inactive) and the GI50 (NCI-H460) was > 100 µM (inactive). For the same compound, the GI50 (SF-295) was > 100 µM (inactive), the GI50 (SK-MEL-5) was > 100 µM (inactive) and the GI50 (MDA-MB-435) was > 100 µM (inactive). For the same compound, the GI50 (Malme-3M) was > 100 µM (inactive), the GI50 (IGROV-1) was > 100 µM (inactive) and the GI50 (UO-31) was > 100 µM (inactive). For the same compound, the GI50 (NCI/ADR-RES) was 10.5 µM (inactive), the GI50 (NCI-H522) was 89.5 µM (inactive) and the GI50 (BT-549) was > 100 µM (inactive). The GI50 (HT-29) was 33.8 µM (inactive), the GI50 (PC-3) was > 100 µM (inactive) and the GI50 (CAKI-1) was > 100 µM (inactive). For the same compound, the GI50 (OVCAR-5) was > 100 µM (inactive), the GI50 (M14) was > 100 µM (inactive) and the GI50 (RPMI-8226) was > 100 µM (inactive). The GI50 (A498) was > 100 µM (inactive), the GI50 (HCT-116) was 78.7 µM (inactive) and the GI50 (A549) was > 100 µM (inactive). The GI50 (SNB-19) was > 100 µM (inactive), the GI50 (HOP-92) was > 100 µM (inactive) and the GI50 (COLO 205) was > 100 µM (inactive). For the same compound, the GI50 (OVCAR-4) was 63.8 µM (inactive), the GI50 (OVCAR-3) was 29.7 µM (inactive) and the GI50 (MOLT-4) was > 100 µM (inactive). The GI50 (SN12C) was > 100 µM (inactive), the GI50 (CCRF-CEM) was > 100 µM (inactive) and the GI50 (SW-620) was > 100 µM (inactive). For the same compound, the GI50 (MCF7) was > 100 µM (inactive), the GI50 (UACC-257) was > 100 µM (inactive) and the GI50 (ACHN) was > 100 µM (inactive). For the same compound, the GI50 (MDA-N) was > 100 µM (inactive).
